According to ChEMBL document CHEMBL1146112, “Fluorescent glycosidase inhibiting 1,5-dideoxy-1,5-iminoalditols” (Bioorg Med Chem Lett, 2006):

What was measured:
[1] = target: T1, Tissue alpha-L-fucosidase (Homo sapiens, UniProt P04066); assay: Inhibition of human liver alpha-L-fucosidase
T1 sequence (P04066 whole entry): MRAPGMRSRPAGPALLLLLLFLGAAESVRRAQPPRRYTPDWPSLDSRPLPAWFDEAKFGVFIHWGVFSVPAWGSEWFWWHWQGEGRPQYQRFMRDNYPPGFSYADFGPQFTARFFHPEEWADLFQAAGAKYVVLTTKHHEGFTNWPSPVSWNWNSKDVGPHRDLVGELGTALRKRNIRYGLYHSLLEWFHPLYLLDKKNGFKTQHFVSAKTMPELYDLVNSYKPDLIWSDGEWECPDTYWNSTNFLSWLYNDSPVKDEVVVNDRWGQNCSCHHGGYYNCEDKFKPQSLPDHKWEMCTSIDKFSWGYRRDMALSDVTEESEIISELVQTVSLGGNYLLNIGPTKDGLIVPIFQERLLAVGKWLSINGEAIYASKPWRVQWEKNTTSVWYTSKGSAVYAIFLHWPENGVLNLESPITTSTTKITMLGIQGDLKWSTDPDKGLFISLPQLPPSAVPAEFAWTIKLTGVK

[2] = target: T2, Beta-xylosidase (Thermoanaerobacterium saccharolyticum, UniProt P36906); assay: Inhibition of Thermoanaerobacterium saccharolyticum beta-xylosidase
T2 sequence (P36906 whole entry): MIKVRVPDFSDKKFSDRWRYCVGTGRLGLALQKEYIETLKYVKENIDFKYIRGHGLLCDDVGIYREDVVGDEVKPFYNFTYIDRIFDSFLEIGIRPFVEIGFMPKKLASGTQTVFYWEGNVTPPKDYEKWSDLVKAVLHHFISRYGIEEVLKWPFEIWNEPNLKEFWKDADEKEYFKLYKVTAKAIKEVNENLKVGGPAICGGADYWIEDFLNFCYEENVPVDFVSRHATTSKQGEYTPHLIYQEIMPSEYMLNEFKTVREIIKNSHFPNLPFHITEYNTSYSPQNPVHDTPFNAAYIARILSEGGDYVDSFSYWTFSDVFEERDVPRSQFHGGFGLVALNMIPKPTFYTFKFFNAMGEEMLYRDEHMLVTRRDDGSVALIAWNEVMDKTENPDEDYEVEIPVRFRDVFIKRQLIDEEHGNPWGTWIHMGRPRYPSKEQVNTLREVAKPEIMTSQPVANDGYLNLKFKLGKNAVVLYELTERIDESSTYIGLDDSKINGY

Row | Ki [1] | Ki [2] | SMILES
1 | 0.5 µM | – | C[C@H]1[C@@H](O)[C@@H](O)[C@H](O)CN1CCCCCCNS(=O)(=O)c1cccc2c(N(C)C)cccc12
2 | – | 206 µM | O[C@H]1[C@H](O)CNC[C@@H]1O [DIDEOXYIMINOXYLITOL]
3 | – | 7.6 µM | CN(C)c1cccc2c(S(=O)(=O)NCCCCCCN3C[C@@H](O)[C@H](O)[C@@H](O)C3)cccc12
